Source: patent US20260027380A1, “TECHNIQUES FOR MAGNETIC NANOCLUSTER-BASED COMBINATION THERAPY” (William Marsh Rice University, priority 2022, published 2026)

Test system: MC-38 cells
Experiment: Lipid peroxidation (MDA level)
Format: cell-based, murine
Settings: without AMF
Description: Further, the effect of IONC-AAPH induced heat and free radicals on lipids was quantified by measuring the level of malondialdehyde (MDA). Malondialdehyde (MDA) is one of the final products of lipid peroxidation. MDA is a widely used biomarker of oxidative stress. Accordingly, the extent of lipid peroxidation after IONC-AAPH treatment was measured via MDA levels. FIG. 12 illustrates a quantification of MDA levels in MC-38 cells 2 hours after treatment. It was observed that the MC-38 cells treated with free AAPH, IONC, and IONC-AAPH, respectively, without AMF, as well as cells treated with IONC under AMF had some increase in MDA levels compared with that of control cells, as shown in FIG. 12. The low levels of lipid peroxidation in these groups may have resulted from the free radicals generated from the slow decomposition of AAPH at 37° C., or the IONC induced fenton/fenton-like reaction, or their combination (IONC-AAPH without AMF).
Determination of lipid peroxidation: The lipid peroxidation of MC-38 cells was determined by measuring the production of malondialdehyde (MDA). MC-38 cells cultured in 4-compartment cell culture dishes were treated with 300 μg Fe/mL of IONC-AAPH or IONC at 37° C. or under AMF for 2 h. Two hours post the treatment, the cells were lysed, and the MDA levels were quantified using a fluorescence-based MDA Assay Kit following the manufacturer's instructions.

CC(C)(N=NC(C)(C)C(=N)N)C(=N)N.Cl.Cl [AAPH, 2,2′-azobis(2-amidinopropane) dihydrochloride]
MDA level vs control cells: some increase
